From patent US9670157B2, “Benzylamine derivatives” (KALVISTA PHARMACEUTICALS LIMITED, priority 2013, dated 2017)
Like-named read-outs stand apart in the source and are kept apart here.

Tests used:
Human KLK1 = Human KLK1 (Homo sapiens (Human), UniProt P06870); assay: Determination of the IC50 for KLK1; type: biochemical; conditions: 37° C., fluorogenic substrate H-DVal-Leu-Arg-AFC
Method: KLK1 inhibitory activity in vitro was determined using standard published methods (see e.g. Johansen et al., Int. J. Tiss. Reac. 1986, 8, 185; Shori et al., Biochem. Pharmacol., 1992, 43, 1209; Stürzebecher et al., Biol. Chem. Hoppe-Seyler, 1992, 373, 1025). Human KLK1 (Callbiochem) was incubated at 37° C. with the fluorogenic substrate H-DVal-Leu-Arg-AFC and various concentrations of the test compound. Residual enzyme activity (initial rate of reaction) was determined by measuring the change in optical absorbance at 410 nm and the IC50 value for the test compound was determined.

Human plasma kallikrein = Human plasma kallikrein (Homo sapiens (Human), UniProt P03952); assay: Determination of the IC50 for Plasma Kallikrein; type: biochemical; conditions: read-out: IC50 (human PKal)
Sequence of Human plasma kallikrein (P03952 391-638): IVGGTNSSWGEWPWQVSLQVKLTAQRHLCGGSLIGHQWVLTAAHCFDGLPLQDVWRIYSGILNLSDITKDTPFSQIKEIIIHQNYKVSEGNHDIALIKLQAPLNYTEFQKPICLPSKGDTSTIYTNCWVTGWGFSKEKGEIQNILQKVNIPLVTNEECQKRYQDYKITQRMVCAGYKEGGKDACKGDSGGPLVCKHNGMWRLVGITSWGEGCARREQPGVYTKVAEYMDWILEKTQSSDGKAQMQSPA
Sequence of Human plasma kallikrein (P03952 20-390 partner): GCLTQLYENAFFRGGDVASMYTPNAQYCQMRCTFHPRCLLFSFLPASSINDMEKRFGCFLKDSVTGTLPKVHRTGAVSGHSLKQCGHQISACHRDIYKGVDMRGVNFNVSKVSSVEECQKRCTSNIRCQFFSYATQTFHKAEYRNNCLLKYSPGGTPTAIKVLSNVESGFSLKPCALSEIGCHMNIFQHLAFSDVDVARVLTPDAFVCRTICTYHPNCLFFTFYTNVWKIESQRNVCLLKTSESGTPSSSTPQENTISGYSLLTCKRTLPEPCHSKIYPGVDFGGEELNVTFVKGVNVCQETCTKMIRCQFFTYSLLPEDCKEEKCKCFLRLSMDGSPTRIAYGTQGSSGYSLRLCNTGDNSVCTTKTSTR
Method: Human plasma kallikrein (Protogen) was incubated at 37° C. with the fluorogenic substrate H-DPro-Phe-Arg-AFC and various concentrations of the test compound. Residual enzyme activity (initial rate of reaction) was determined by measuring the change in optical absorbance at 410 nm and the IC50 value for the test compound was determined.

[1] = 37° C., fluorogenic substrate H-DPro-Phe-Arg-AFC

Sequence of Human KLK1 (P06870 25-262): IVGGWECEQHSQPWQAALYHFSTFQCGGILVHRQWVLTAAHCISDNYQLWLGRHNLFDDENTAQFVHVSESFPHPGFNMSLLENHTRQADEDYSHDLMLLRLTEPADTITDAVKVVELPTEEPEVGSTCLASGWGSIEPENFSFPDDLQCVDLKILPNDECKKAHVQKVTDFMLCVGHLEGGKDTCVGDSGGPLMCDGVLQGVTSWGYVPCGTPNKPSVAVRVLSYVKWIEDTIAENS

| Compound | IC50 (Human KLK1) | IC50 (Human plasma kallikrein; [1]) | IC50 (Human plasma kallikrein) |
| --- | --- | --- | --- |
| CCn1c(C(=O)NCc2ccc(CN)cc2)cc(C)c1Cc1ccccc1 [Example 77, 5-Benzyl-1-ethyl-4-methyl-1H-pyrrole-2-carboxylic acid 4-aminomethyl-benzylamide] | > 10000 nM | 3720 nM |  |
| CCCn1c(C(=O)NCc2ccc(CN)cc2)cc(C)c1Cc1ccccc1 [Example 78, 5-Benzyl-4-methyl-1-propyl-1H-pyrrole-2-carboxylic acid 4-aminomethyl-benzylamide] | > 10000 nM | 4130 nM |  |
| Cc1c(C(=O)NCc2ccc(CN)cc2)cnn1Cc1csc(-c2ccccc2)n1 [Example 80, 5-Methyl-1-(2-phenyl-thiazol-4-ylmethyl)-1H-pyrazole-4-carboxylic acid 4-aminomethyl-benzylamide] | > 10000 nM | 2340 nM |  |
| Cc1nn(Cc2csc(-c3ccccc3)n2)cc1C(=O)NCc1ccc(CN)cc1 [Example 81, 3-Methyl-1-(2-phenyl-thiazol-4-ylmethyl)-1H-pyrazole-4-carboxylic acid 4-aminomethyl-benzylamide] | > 10000 nM | 695 nM |  |
| NCc1ccc(CNC(=O)c2cnn(Cc3csc(-c4ccccc4)n3)c2C(F)(F)F)cc1 [Example 82, 1-(2-Phenyl-thiazol-4-ylmethyl)-5-trifluoromethyl-1H-pyrazole-4-carboxylic acid 4-aminomethyl-benzylamide] | > 8660 nM | 488 nM |  |
| Cc1cnn(Cc2ccc(Cn3cc(C(=O)NCc4ccc(CN)cc4)cn3)cc2)c1 [Example 85, 1-[4-(4-Methyl-pyrazol-1-ylmethyl)-benzyl]-1H-pyrazole-4-carboxylic acid 4-aminomethyl-benzylamide] | > 8510 nM |  | 11 nM |
| Cc1cc(C(=O)NCc2ccc(CN)cc2)c(C)n1Cc1ccc(Cn2ccccc2=O)cc1 [Example 90, 2,5-Dimethyl-1-[4-(2-oxo-2H-pyridin-1-ylmethyl)-benzyl]-1H-pyrrole-3-carboxylic acid 4-aminomethyl-benzylamide] | > 10000 nM |  | 114 nM |
| Cc1cc(CN)ccc1CNC(=O)c1cc(C)n(Cc2ccc(Cn3ccccc3=O)cc2)c1C [Example 91, 2,5-Dimethyl-1-[4-(2-oxo-2H-pyridin-1-ylmethyl)-benzyl]-1H-pyrrole-3-carboxylic acid 4-aminomethyl-2-methyl-benzylamide] | > 10000 nM | 29 nM |  |
| CCn1c(C(=O)NCc2ccc(CN)cc2C)cc(C)c1Cc1ccc(Cn2ccccc2=O)cc1 [Example 92, 1-Ethyl-4-methyl-5-[4-(2-oxo-2H-pyridin-1-ylmethyl)-benzyl]-1H-pyrrole-2-carboxylic acid 4-aminomethyl-2-methyl-benzylamide] | 10000 nM | 40 nM |  |
| CCn1c(C(=O)NCc2ccc(C3(N)CC3)cc2)cc(C)c1Cc1ccc(Cn2ccccc2=O)cc1 [Example 93, 1-Ethyl-4-methyl-5-[4-(2-oxo-2H-pyridin-1-ylmethyl)-benzyl]-1H-pyrrole-2-carboxylic acid 4-(1-amino-cyclopropyl)-benzylamide] | > 10000 nM | 2840 nM |  |
| Cc1cc(CN)cc(C)c1CNC(=O)c1cc(C)n(Cc2ccc(Cn3ccccc3=O)cc2)c1C [Example 94, 2,5-Dimethyl-1-[4-(2-oxo-2H-pyridin-1-ylmethyl)-benzyl]-1H-pyrrole-3-carboxylic acid 4-aminomethyl-2,6-dimethyl-benzylamide] | 10900 nM | 11 nM |  |
| CCn1c(C(=O)NCc2c(C)cc(CN)cc2C)cc(C)c1Cc1ccc(Cn2ccccc2=O)cc1 [Example 95, 1-Ethyl-4-methyl-5-[4-(2-oxo-2H-pyridin-1-ylmethyl)-benzyl]-1H-pyrrole-2-carboxylic acid 4-aminomethyl-2,6-dimethyl-benzylamide] | 3900 nM | 16 nM |  |
| CCn1c(C(=O)NCc2ccc(CN)cc2C)cc(C)c1Cc1ccc(Cn2cc(C)cn2)cc1 [Example 99, 1-Ethyl-4-methyl-5-[4-(4-methyl-pyrazol-1-ylmethyl)-benzyl]-1H-pyrrole-2-carboxylic acid 4-aminomethyl-2-methyl-benzylamide] | > 10000 nM | 38 nM |  |
| CCn1c(C(=O)NCc2c(C)cc(CN)cc2C)cc(C)c1Cc1ccc(Cn2cc(C)cn2)cc1 [Example 102, 1-Ethyl-4-methyl-5-[4-(4-methyl-pyrazol-1-ylmethyl)-benzyl]-1H-pyrrole-2-carboxylic acid 4-aminomethyl-2,6-dimethyl-benzylamide] | 4270 nM | 11 nM |  |

More lines, main results first:

| IC50 (Human KLK1) | IC50 (Human plasma kallikrein; [1]) | Compound | IC50 (Human plasma kallikrein) |
| --- | --- | --- | --- |
| > 10000 nM | 5550 nM | CC(C)NC(=O)c1ccc(Cn2cc(C(=O)NCc3ccc(CN)cc3)cn2)cc1 [Example 79, 1-(4-Isopropylcarbamoyl-benzyl)-1H-pyrazole-4-carboxylic acid 4-aminomethyl-benzylamide] |  |
| > 10000 nM | 7 nM | Cc1cc(C)n(Cc2ccc(Cn3cc(C(=O)NCc4ccc(CN)cc4)cn3)cc2)n1 [Example 86, 1-[4-(3,5-Dimethyl-pyrazol-1-ylmethyl)-benzyl]-1H-pyrazole-4-carboxylic acid 4-aminomethyl-benzylamide] |  |
| > 10000 nM | 5480 nM | NCc1ccc(CNC(=O)c2cnn(Cc3ccc(C(=O)N4CCCCC4)cc3)c2)cc1 [Example 87, 1-[4-(Piperidine-1-carbonyl)-benzyl]-1H-pyrazole-4-carboxylic acid 4-aminomethyl-benzylamide] |  |
| > 10000 nM | 226 nM | NC1(c2ccc(CNC(=O)c3cnn(Cc4ccc(Cn5ccccc5=O)cc4)c3)cc2)CC1 [Example 89, 1-[4-(2-Oxo-2H-pyridin-1-ylmethyl)-benzyl]-1H-pyrazole-4-carboxylic acid 4-(1-amino-cyclopropyl)-benzylamide] |  |
| > 10000 nM | 63 nM | Cc1cnn(Cc2ccc(Cn3c(C)cc(C(=O)NCc4ccc(CN)cc4)c3C)cc2)c1 [Example 96, 2,5-Dimethyl-1-[4-(4-methyl-pyrazol-1-ylmethyl)-benzyl]-1H-pyrrole-3-carboxylic acid 4-aminomethyl-benzylamide] |  |
| > 10000 nM | 28 nM | Cc1cnn(Cc2ccc(Cn3c(C)cc(C(=O)NCc4ccc(CN)cc4C)c3C)cc2)c1 [Example 97, 2,5-Dimethyl-1-[4-(4-methyl-pyrazol-1-ylmethyl)-benzyl]-1H-pyrrole-3-carboxylic acid 4-aminomethyl-2-methyl-benzylamide] |  |
| > 10000 nM | 701 nM | Cc1cnn(Cc2ccc(Cn3c(C)cc(C(=O)NCc4ccc(C5(N)CC5)cc4)c3C)cc2)c1 [Example 98, 2,5-Dimethyl-1-[4-(4-methyl-pyrazol-1-ylmethyl)-benzyl]-1H-pyrrole-3-carboxylic acid 4-(1-amino-cyclopropyl)-benzylamide] |  |
| > 10000 nM | 2320 nM | CCn1c(C(=O)NCc2ccc(C3(N)CC3)cc2)cc(C)c1Cc1ccc(Cn2cc(C)cn2)cc1 [Example 100, 1-Ethyl-4-methyl-5-[4-(4-methyl-pyrazol-1-ylmethyl)-benzyl]-1H-pyrrole-2-carboxylic acid 4-(1-amino-cyclopropyl)-benzylamide] |  |
| > 10000 nM | 694 nM | Cc1cnn(Cc2ccc(Cn3cc(C(=O)NCc4ccc(C5(N)CC5)cc4)cn3)cc2)c1 [Example 103, 1-[4-(4-Methyl-pyrazol-1-ylmethyl)-benzyl]-1H-pyrazole-4-carboxylic acid 4-(1-amino-cyclopropyl)-benzylamide] |  |
| > 10000 nM | 30 nM | Cc1cnn(Cc2ccc(Cn3cnc(C(=O)NCc4ccc(CN)cc4)c3)cc2)c1 [Example 104, 1-[4-(4-Methyl-pyrazol-1-ylmethyl)-benzyl]-1H-imidazole-4-carboxylic acid 4-aminomethyl-benzylamide] |  |
| > 10000 nM | 941 nM | Cc1cnn(Cc2ccc(Cn3cnc(C(=O)NCc4ccc(C5(N)CC5)cc4)c3)cc2)c1 [Example 105, 1-[4-(4-Methyl-pyrazol-1-ylmethyl)-benzyl]-1H-imidazole-4-carboxylic acid 4-(1-amino-cyclopropyl)-benzylamide] |  |
| > 10000 nM | 2 nM | Cc1cnn(Cc2ccc(Cn3cc(C(=O)NCc4ccc(CN)cc4C)cn3)cc2)c1 [Example 106, 1-[4-(4-Methyl-pyrazol-1-ylmethyl)-benzyl]-1H-pyrazole-4-carboxylic acid 4-aminomethyl-2-methyl-benzylamide] |  |
| > 10000 nM | 3 nM | Cc1cnn(Cc2ccc(Cn3cnc(C(=O)NCc4ccc(CN)cc4C)c3)cc2)c1 [Example 107, 1-[4-(4-Methyl-pyrazol-1-ylmethyl)-benzyl]-1H-imidazole-4-carboxylic acid 4-aminomethyl-2-methyl-benzylamide] |  |
| > 10000 nM | 33 nM | Cc1cnn(Cc2ccc(Cn3cc(C(=O)NCc4ccc(CN)cc4)nn3)cc2)c1 [Example 108, 1-[4-(4-Methyl-pyrazol-1-ylmethyl)-benzyl]-1H-[1,2,3]triazole-4-carboxylic acid 4-aminomethyl-benzylamide] |  |
| > 10000 nM | 5 nM | Cc1cnn(Cc2ccc(Cn3cc(C(=O)NCc4ccc(CN)cc4C)nn3)cc2)c1 [Example 109, 1-[4-(4-Methyl-pyrazol-1-ylmethyl)-benzyl]-1H-[1,2,3]triazole-4-carboxylic acid 4-aminomethyl-2-methyl-benzylamide] |  |
